Patent US20050282863A1, “Novel-N substituted dihydrobenzothiepino, dihydrobenzoxepino and tetrahydro benzocyclohepta indoles as selective estrogen receptor modulators” (Council of Scientific & Industrial Research, priority 2004, published 2005)
Where two headings read alike, the source gives them in different places.

Assays:
[1] = tested on: MCF-7 cells; experiment: Antiproliferative/cytotoxic activity in cultured MCF-7 cells (SRB assay); type: cell-based; conditions: Homo sapiens, MCF7, 48 h, MCF-7, 48 h
[2] = tested on: immature ovariectomized rats; experiment: Estrogen agonistic activity: increase in uterine weight in immature ovariectomized rats; type: in vivo, rat; conditions: 3 days, percent of ovariectomized + vehicle group; for change in vivo at 3 mg/kg: daily dose 3 mg/kg
[3] = tested on: adult female rats; experiment: Post-coital antifertility efficacy in adult female rats; type: in vivo, rat; conditions: daily dose 10 mg/kg, oral, days 1-7 post-coitum
[4] = tested on: immature ovariectomized rats; experiment: Estrogen antagonistic activity: inhibition in 17α-ethynylestradiol induced uterine weight gain in immature ovariectomized rats; type: in vivo, rat; conditions: Rattus norvegicus, 72 h, 3 days, read-out: Percent inhibition in 17α-ethynylestradiol induced uterine weight gain; for inhibition in vivo at 10 mg/kg/day: daily dose 10 mg/kg with 0.02 mg/kg 17-alfa-ethynylestradiol
Procedure: Twenty-one-day-old immature female rats are bilaterally ovariectomized under light ether anaesthesia and after post-operative rest for 7 days, are randomized into different treatment groups. Each rat receives the compounds of the invention and 0.02 mg/kg dose of 17-alfa-ethynylestradiol in 10% ethanol-distilled water once daily for 3 consecutive days on days 28-30 of age. A separate group of animals receiving only 17-alfa-ethynylestradiol (0.02 mg/kg) in 10% ethanol-distilled water for similar duration are used for comparison. At autopsy on day 31 of age, vaginal smear of each rat is taken and uterus is carefully excised, gently blotted, weighed and fixed for histology and histomorphometry using image analysis. Inhibition in 17-alfa-ethynylestradiol-induced premature opening of vagina, cornification of vaginal epithelium, increase in uterine fresh weight, total uterine and endometrial area and uterine luminal epithelial cell height are taken as parameters for evaluation of estrogen antagonistic activity.

[5] = tested on: chick fetal bones in culture; experiment: Inhibition in PTH-induced resorption of 45Ca from chick fetal bones in culture (antiresorptive activity in vitro); type: cell-based; conditions: Gallus gallus, 96 h, PTH-induced 45Ca resorption, 96 h culture, read-out: T/C ratio
Procedure: 5 μl of each concentration are used for evaluation of antiresorptive activity in vitro. In control experiments, 5 μl of appropriate solvent is used in lieu of the test compound. Femur bones are isolated from chick embryos on day 11 post-ovulation. The adhering soft connective tissue is completely removed. Each femur bone is then placed in a drop of phosphate buffered saline (PBS) and is transferred to BGJb culture medium containing ^45CaCl2 and incubated for 2 h. Labeled femur bones are washed 2-3 times with PBS and transferred to BGJb medium containing parathyroid hormone and cultured for 96 h in the presence or absence of the compound of invention or the vehicle in BGJb medium. Contralateral femur of each fetus serves as corresponding control. Culture medium with the respective treatment in each well is changed after 48 h. On termination of the culture at 96 h, bones are transferred to 0.1 N HCl for 24 h. Radioactivity due to ^45Ca in the spent medium collected at 48 and 96 h of culture and HCl extract at 96 h of culture is quantified by Liquid Scintillation Spectrophotometer in 10 ml of the scintillation fluid. Bone resorbing activity is expressed as percentage of ^45Ca released into the culture medium and the effect of the compound of invention as percent of the corresponding contra-lateral control or T/C ratio as shown below: [formula]
Appropriate solvents are selected from solvents like water, physiological saline, phosphate buffered saline, phosphate buffer, DMSO alone or in a suitable combination thereof.

Row | Structure (SMILES) | CC50 ([1]; read-out: LC50, Test-1) [µM] | change in vivo at 1 mg/kg ([2]; Rattus norvegicus, 72 h, daily dose 1 mg/kg) [%] | change in vivo at 3 mg/kg ([2]; Rattus norvegicus, 72 h) [%] | Percent increase in uterine weight ([2]; daily dose 10 mg/kg) [%] | % Efficacy [3] | inhibition in vivo at 1 mg/kg/day ([4]; daily dose 1 mg/kg with 0.02 mg/kg 17-alfa-ethynylestradiol) [%] | inhibition in vivo at 10 mg/kg/day [4] [%] | activity at 25 µM ([5]; 25 μM) [%] | activity at 50 µM ([5]; 50 μM) [%] | activity at 200 µM ([5]; 200 μM) [%] | CC50 ([1]; read-out: LC50, Test-3) [µM] | change in vivo at 10 mg/kg ([2]; Rattus norvegicus, 72 h, daily dose 10 mg/kg) [%] | activity at 100 µM ([5]; 100 μM) [%]
1 | CCCCN(C)CCCCCn1c2c(c3ccccc31)CCSc1ccccc1-2 [Example number 13, 12-[5-(N-butylmethylamino)pentyl]-6,7-dihydro-12H-benzothiepino [5,4-b]indole] | 24 | 8 | 2.53 | 126.00 | Inactive | 12 | 37 | 33 | 41 | 61 | – | – | –
2 | c1ccc2c(c1)SCCc1c-2n(CCCCCCN2CCCCC2)c2ccccc12 [Example number 18, 12-[6-(Piperidine-1-yl)hexyl]-6,7-dihydro-12H-benzothiepino [5,4-b]indole] | 18.2 | – | 1.76 | – | Inactive | – | 19 | – | – | – | 9.63 | 51 | 160
